Laboratory results from patent US20060183794A1, “Drug composition containing nf-kb inhibitor” (priority 2002, published 2006).

Columns and labels:
[1] = test system: normal peripheral blood mononuclear cells; experiment: MTT assay, normal peripheral blood mononuclear cells; format: cell-based, human
Protocol: Mononuclear cells were isolated from normal peripheral blood and DHM2EQ was added at final concentrations of 2, 5, and 10 μg/ml, followed by 72-hour incubation. The proliferation-inhibitory effect was examined by the MTT assay. Cells to which the solvent DMSO had been added in equal volume (0 μg/ml) were used as controls. The cell viability was represented as the ratio to the MTT value of the controls (DHM2EQ-untreated) by letting it=100%.
Next, to investigate the inhibitory effect of DHMEQ on proliferation of cells of multiple myeloma (MM) patients, MM cells (MM1, MM2, and MM3) were isolated from patients' bone marrow, incubated for 48 hours at the DHMEQ concentration of 10 μg/ml, and the proliferation-inhibitory effect was examined by the MTT assay. Peripheral blood mononuclear cells (PBMC) isolated from normal peripheral blood were used as control cells. In the figure, the vertical axis indicates the relative values of the MTT values of treated cells versus untreated cells, i.e., (DHMEQ-treated/untreated)×100%.

NF-κB [2] = biological target: T1, NF-κB (Homo sapiens, UniProt P19838+Q04206); experiment: Gel shift assay (EMSA) of NF-κB activation in stimulated HUVECs; format: cell-based; set-up: endogenous in cells; host or cells: MCF-7 cells treated with TNF-α; settings: DHMEQ 3 μg/ml, 2 h pretreatment
From the text: HUVECs were pretreated with DHMEQ as follows. […] Nuclear extract was thus obtained.
Target sequence in this assay (Q04206 whole entry): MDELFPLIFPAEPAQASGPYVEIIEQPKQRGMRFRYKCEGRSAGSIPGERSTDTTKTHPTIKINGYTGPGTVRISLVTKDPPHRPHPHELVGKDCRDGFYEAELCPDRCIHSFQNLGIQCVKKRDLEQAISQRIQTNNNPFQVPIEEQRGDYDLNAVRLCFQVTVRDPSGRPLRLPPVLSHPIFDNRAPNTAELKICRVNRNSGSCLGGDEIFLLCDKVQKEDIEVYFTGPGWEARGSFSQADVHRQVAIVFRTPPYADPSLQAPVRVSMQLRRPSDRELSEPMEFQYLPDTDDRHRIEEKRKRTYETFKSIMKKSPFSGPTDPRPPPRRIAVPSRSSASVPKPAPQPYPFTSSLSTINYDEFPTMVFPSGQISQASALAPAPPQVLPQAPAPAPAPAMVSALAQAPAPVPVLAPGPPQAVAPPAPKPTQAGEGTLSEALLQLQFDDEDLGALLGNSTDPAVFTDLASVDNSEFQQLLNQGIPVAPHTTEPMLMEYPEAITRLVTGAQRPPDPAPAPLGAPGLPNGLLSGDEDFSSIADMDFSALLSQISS
Target sequence in this assay (P19838 1-433 limits assumed): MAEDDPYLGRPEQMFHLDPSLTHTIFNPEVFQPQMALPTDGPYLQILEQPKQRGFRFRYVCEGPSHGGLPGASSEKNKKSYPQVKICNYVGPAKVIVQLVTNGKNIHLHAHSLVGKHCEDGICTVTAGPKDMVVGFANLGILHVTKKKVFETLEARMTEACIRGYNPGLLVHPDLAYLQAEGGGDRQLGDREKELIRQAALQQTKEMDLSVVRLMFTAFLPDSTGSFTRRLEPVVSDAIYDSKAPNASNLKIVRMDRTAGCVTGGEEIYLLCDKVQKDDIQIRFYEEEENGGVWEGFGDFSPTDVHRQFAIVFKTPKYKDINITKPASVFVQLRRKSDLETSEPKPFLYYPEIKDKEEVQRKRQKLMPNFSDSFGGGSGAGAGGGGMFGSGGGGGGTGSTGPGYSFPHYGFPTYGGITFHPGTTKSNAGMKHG

[3] = test system: cachexia symptoms induced by JCA-1 cells; experiment: Cancer cachexia model, JCA-1 tumor-bearing BALB/c nude mice; format: in vivo
Protocol: To assay the effect of the compounds represented by the general formula (1) or pharmacologically acceptable salts thereof on cachexia, cachexia-induced BALB/c nude mice were used as model mice of human patients with cachexia. Here, cachexia symptoms were induced using the androgen-insensitive human prostatic cancer cell-line JCA-1.
To measure the effect of DHMEQ on cachexia symptoms, the cachexia model mice were prepared using the aforementioned nude mice. JCA-1 cells (1×10^7 cells) suspended in 100 μl of PBS were inoculated subcutaneously into the flank of six-old-week nude mice (hereafter called tumor-bearing mice). Fourteen days after the inoculation, when the tumors had reached palpable sizes, the inoculated mice were randomly assigned to three groups: group 2 (Gr2; n=13), given DHMEQ (8 mg/kg bw) every day; group 3 (Gr3; n=13), given DMSO every day; and group 4 (Gr4; n=11), given nothing. Group 1 (Gr1; n=14), consisting of normal nude mice not inoculated with JCA-1 cells (hereinafter called “normal mice”), was also included. From the next day of administration of DHMEQ, the body weights (FIG. 20) and the tumor weights (FIG. 21) calculated from the tumor diameters were measured every other day. On day 26 after the start of administration of DHMEQ, all mice were dissected and the tumor weights (FIG. 22), the weights of fat around the testis (FIG. 23) the gastrocnemius weights (FIG. 24), and the hematocrits (FIG. 25; the ratio of the volume of blood cell components to that of whole blood, which can be measured by blood centrifugation) were measured. The measured values were summed up for every group.

NF-κB [4] = biological target: T1, NF-κB; experiment: Gel shift assay of constitutive NF-κB activation in Hodgkin's lymphoma cell lines; format: cell-based; set-up: endogenous in cells; host or cells: HL cell lines KMH2, L428, L540, HDLM2 (A30: KMH2 treated with antitumor agents)
Protocol: The ATL cell lines (MT-1 and TL-Om1) and the control cell lines (K562 and Jurkat+TNF), 2×10^6 cells each, were treated with 10 μg/ml DHM2EQ for 12 hours, and nuclear extract was prepared from each cell line. Likewise, nuclear extract was prepared also from the cell lines not treated with DHM2EQ. MT-1 and TL-Om1 are the cell lines transformed with HTLV-1; NF-κB is activated in these cell lines. K562 (myelocytic leukemia cell line) is a cell line in which constitutive NF-κB is not confirmed (a negative control), and Jurkat+TNF is a […] consensus oligomers (Promega) were end-labeled with [γ-^32P]-ATP and polynucleotide kinase (PNK) to prepare ^32P-labeled NF-κB probes.
The equivalent of 2 μg of nuclear extract protein was mixed with NF-κB probes (the equivalent of 10,000 cpm) in a volume of 20 μl and reacted at room temperature for 30 min. The solution after the reaction was subjected to 7.5% polyacrylamide gel electrophoresis. The gel was then dried and exposed to an X-ray film.
The HL cell lines, KMH2, L428, L540, and HDLM2, and the control cell line K562 (2×10^6 cells each) were treated with 10 μg/ml DHMEQ for 12 hours, and nuclear extract was prepared from each cell line. The gel shift assay was performed in the same method as in Example 4 (1) and the inhibitory effect on NF-κB was examined. […] Cell line K562 (myelocytic leukemia cell line) is a cell line in which constitutive activation of NF-κB is not observed, and thus used as the negative control. On the other hand, the TNF-treated Jurkat (Jurkat+TNF) was used as the positive control.
Next, the HL cell lines KMH2 and L540 were treated with 10 μg/ml DHMEQ and nuclear extract was prepared from each cell line. The gel shift assay was performed in the same method as in Example 4 (1) and the time-course inhibitory effect on NF-κB was examined.
Thus, investigation was performed to determine whether these signals have NF-κB-specific subunits of DHMEQ resistance. Further, the HL cell lines, KMH2, L428L-540, and HDLM2 were treated with 5 μg/ml DHMEQ for 12 hours, and the remaining component of NF-κB was supershifted with antibodies against p50, p65, and c-Rel according to the same method as described in Example 1.
Target sequence in this assay (P19838 1-433 limits assumed): as above
Target sequence in this assay (Q04206 whole entry): as the sequence (Q04206 whole entry) above

[5] = 8 mg/kg bw every day, day 26, Gr2 vs Gr3 and Gr4

Structure (SMILES): O=C(NC1=CC(=O)C2OC2C1O)c1ccccc1O (stereo not shown) [DHMEQ, 5,6-epoxy-4-hydroxy-3-salicyloylamino-2-cyclohexenone]
- proliferation of normal peripheral blood mononuclear cells (MTT) ([1]; 2, 5, 10 μg/ml, 72 hours): almost no inhibitory effect
- influence on peripheral blood mononuclear cells (MTT) ([1]; PBMC control, 10 μg/ml, 48 hours): almost no influence
- activation of NF-κB in HUVECs caused by TNF-α, IL-1β, and LPS (NF-κB [2]): completely suppressed
- body weight reduction ([3]; 8 mg/kg bw every day (Gr2) vs Gr3 and Gr4): significantly suppressed
- influence on internal organ weights ([3]; 8 mg/kg bw every day, day 26): No unfavorable influence
- regressive effect on tumors (tumor weight) ([3]; 8 mg/kg bw every day, day 26): no regressive effect
- gastrocnemius weight [3, 5]: weight reduction was significantly suppressed
- hematocrit [3, 5]: significant tendency of recovery
- weight of fat around the testis [3, 5]: weight reduction was significantly suppressed
- signals by NF-κB (gel shift) (NF-κB [4]; KMH2, L428, L540, HDLM2, 10 μg/ml, 12 hours): almost lost
- persistence of inhibition of NF-κB activation (NF-κB [4]; KMH2 and L540, 10 μg/ml): sustained even after a lapse of 16 hours
- activation of NF-κB, time course (gel shift) (NF-κB [4]; KMH2 and L540, 10 μg/ml, 1 hour after treatment): almost inhibited
- remaining NF-κB signals after DHMEQ treatment (NF-κB [4]; L428 and KMH2): weak signals remain
